In US9486502B2, “Methods of administering interferon gamma to absorb fluid from the subretinal space” (The United States of America, as represented by the …, priority 2008, dated 2016):
Structures can show the parent of a compound that is named as a salt.

What was measured:
hfRPE monolayers [1] = assay: electrophysiology of hfRPE monolayers (TEP, RT, VA, VB, RA/RB); assay type: cell-based, human
Source text: Equivalent circuit analysis and electrophysiological methods have been previously described in Quinn, R. H., et al., Invest Ophthalmol Vis Sci, 1992, 33, 3513-3527; Joseph D. P., et al., J Physiol, 1991, 435, 439-463; and Maminishkis, A., et al., 2006, Ophthalmol Vis Sci, 47, 3612-3624each incorporated herein by reference in its entirety.
Briefly, confluent monolayers of cultured hfRPE were mounted on a nylon mesh support and clamped into a modified Üssing chamber that allowed the rapid exchange of Ringer's solution (≈10 chamber volumes per minute) and the measurement of fast electrical changes in seconds. The electrical connections to the apical and basal chambers were made with Ringer-agar bridges in series with calomel electrodes. Intracellular potentials were recorded with conventional microelectrodes, back-filled with 150 mM KCl, with resistances of 80 to 200 Ma The apical and basolateral membrane potentials (VA and VB) are calculated as the voltage differences between the intracellular microelectrode and the apical and basal bath electrodes, respectively. The resistances of the apical and basolateral membranes were designated RA and RB, respectively, and the transepithelial potential (TEP=VB-VA) is the voltage difference between the apical and basal bath electrodes. Epithelial resistance parameters were obtained by passing 4-μA bipolar current pulses (i) using Ag—AgCl electrodes, one located in the apical chamber and the other located in the basal chamber. The total transepithelial resistance (Rt) is calculated from the current-induced changes in TEP (Rt=ΔTEP/i). The apparent membrane resistance ratio (RA/RB) is calculated from the ratio of change in VA to change in VB (RA/RB=ΔVA/ΔVB).
The control Ringer's solution for measurements of TEP and Rt in culture hfRPE contained 116 mM NaCl, 5 mM KCl, 26.2 mM NaHCO3, 1 mM NaH2PO4, 1 mM Mg Cl2, 1.8 mM CaCl2, 10 mM glucose, and 2 mM Taurine. The osmolarity of control Ringer's solution was 295 mOsm. The solutions were maintained at 35° C. and a pH of 7.4, and were bubbled with 10% O2, 5% CO2 and 85% N2. 8-Bromo-cAMP (or Dibutyryl cAMP), 8-Br-cGMP, and forskolin were obtained from Sigma-Aldrich.

hfRPE monolayers [2] = assay: fluid transport (JV, TEP, RT) across hfRPE monolayers in modified Üssing chamber; assay type: cell-based, human; settings: for effect on JV after P38 MAPK inhibitor: CFTR inhibitor added to basal bath after P38 MAPK inhibitor
Source text: Confluent monolayers of hfRPE cultured on transwells were mounted in a modified Üssing chamber and transepithelial water flow measurements (JV) were made with a capacitance probe technique as described previously in Maminishkis, A., et al., Invest Ophthalmol Vis Sci, 2006, 47, 3612-3624; Shi, G., et al., Invest Ophthalmol Vis Sci, 2008, 49, 4620-4630; Edelman, J. L., et al., Invest Ophthalmol Vis Sci, 1991, 32, 3033-3040; Jiang, C., et al., Science, 1993, 262, 424-427; and Maminishkis, A., et al., Invest Ophthalmol Vis Sci, 2002, 43, 3555-3566, each incorporated herein by reference in its entirety.
Tissue viability was ascertained by recording transepithelial potential (TEP) and total tissue resistance (RT). It should be noted that the solution composition changes in this chamber were relatively slow (≈1-2 chamber volumes per minute) and the data sampling rate was once per minute, more than two orders of magnitude slower than the sampling rate in the electrophysiology chamber (see below). Therefore it was not possible to record fast changes, in seconds or minutes, in JV, TEP, or RT. After addition of IFNγ to the apical or basal baths, steady-state JV, TEP, and RT were recorded for 20-30 minutes. In control experiments, successive additions of IFNγ were made to test for the repeatability and reversibility of responses. To block IFNγ effects, RPE cells were incubated for 30-60 minutes with a blocking antibody against IFNγ R1, JAK inhibitor I, PKA inhibitors (H-89, EMD Biosciences; RP-8-Br-cAMPS, Sigma-Aldrich), nitric oxide synthase inhibitor (aminoguanidine hydrochloride, Sigma-Aldrich), P38 MAPK inhibitors (SB203580 or SB20290), or CHX. Other components of this signaling pathway were studied using P38 MAPK inhibitors (SB203580 and SB202190). Relatively specific Cl channel inhibitors, CFTRinh-172 or DIDS (EMD Biosciences, La Jolla, Calif.), were used to block cAMP or Ca^2+-activated Cl channels; experiments with CFTRinh-172 were performed as described in Muanprasat, C., et al., J Gen Physiol, 2004, 124, 125-137, incorporated herein by reference in its entirety. In chronic experiments, paired hfRPE tissues with matched RT values were incubated for 4-24 hours with IFNγ or CHX. The subsequent changes in JV, RT, and TEP were measured in Ringer's solution or serum free cell culture media as previously described in Shi, G., et al., Invest Ophthalmol Vis Sci, 2008 and Maminishkis, A., et al., Invest Ophthalmol Vis Sci, 2006, 47, 3612-3624, each incorporated herein by reference in its entirety. Intracellular levels of NO were elevated with 1-Hydroxy-2-oxo-3-(3-aminopropyl)-3-isopropyl-1-triazene (NOC-5, Enzo Life Sciences, Plymouth, Pa.). 8-Br-cGMP was purchased from Sigma-Aldrich.

[3] = CFTRinh−172 basal bath after IFNγ
[4] = SB203580 pretreatment ≧30 minutes, n=6

O=C(O)c1ccc(/C=C2\SC(=S)N(c3cccc(C(F)(F)F)c3)C2=O)cc1 [CFTRinh−172]
effect on cAMP-induced electrical changes (hfRPE monolayers [1]; CFTRinh−172): blocked | effect on RA/RB (hfRPE monolayers [1]; [3]): slight decrease | effect on RT (hfRPE monolayers [1]; [3]): increased | effect on TEP (hfRPE monolayers [1]; [3]): decreased | effect on both membrane potentials (hfRPE monolayers [1]; [3]): hyperpolarize | effect on NOC-5 induced increase in Jv (hfRPE monolayers [2]; CFTR inhibitor 5 μM basal bath, NOC-5 250 μM, n=3): blocked | effect on IFNγ-induced fluid transport after H-89 (hfRPE monolayers [2]; CFTR inhibitor added after H-89): no further effect | effect on JV after P38 MAPK inhibitor (hfRPE monolayers [2]): further decrease | effect on JV after P38 MAPK inhibitor (hfRPE monolayers [2]; listed as CFTR inhibitor): further decreased | decrease of the IFNγ-induced JV increase (hfRPE monolayers [2]; CFTRinh−172 5 μM basal bath, FIG. 14E): ≈ 9.8 μl·cm^−2·hr^−1 | mean JV after inhibitor in IFNγ-treated hfRPE (hfRPE monolayers [2]; CFTRinh−172 5 μM, 11 experiments, from 16.6±1.2): 6.8±1.0 μl·cm^−2·hr^−1 | JV after inhibitor in 24 hour IFNγ-treated hfRPE (hfRPE monolayers [2]; CFTRinh−172 5 μM, from 15.1, FIG. 14F): 4.8 μl·cm^−2·hr^−1 | decrease in JV (hfRPE monolayers [2]; CFTRinh−172 added after IFNγ and basal DIDS, n=1): 12.6 μl·cm^−2·hr^−1 | baseline JV after inhibitor (hfRPE monolayers [2]; CFTRinh−172 basal bath, no IFNγ, baseline 12.5 ±3.1, n=5): 3.2 ±1.0 μl·cm^−2·hr^−1 | Jv after CFTR inhibitor in 8-Br-cGMP-treated hfRPE (hfRPE monolayers [2]; FIG. 21, from 19.5): 11.5 μl·cm^−2·hr^−1 | Jv after CFTR inhibitor in 8-Br-cGMP-treated hfRPE (hfRPE monolayers [2]; four experiments, from 15.8±1.6): 8.9±1.3 μl·cm^−2·hr^−1

Oc1ccc(-c2nc(-c3ccncc3)c(-c3ccc(F)cc3)[nH]2)cc1 [SB202190]
block of IFNγ stimulated fluid transport (hfRPE monolayers [2]; SB202190 1-5 μM): approximately 46%

O=S(=O)(O)c1cc(N=C=S)ccc1C=Cc1ccc(N=C=S)cc1S(=O)(=O)O [DIDS]
effect on spontaneous steady-state JV (hfRPE monolayers [2]; DIDS 500 μM, n=2): no effect | effect on JV following CFTRinh−172 inhibition of IFNγ-induced JV (hfRPE monolayers [2]; DIDS, n=2): no further inhibition | effect on IFNγ-induced JV increase (hfRPE monolayers [2]; basal DIDS): not affected

N=C(N)NN [aminoguanidine hydrochloride]
effect on IFNγ induced increase in Jv (hfRPE monolayers [2]; iNOS inhibitor 100 μM applied after IFNγ 5 ng/ml, n=3, hydrochloride): blocks | effect on IFNγ induced increase in Jv (hfRPE monolayers [2]; iNOS inhibitor 100 μM applied after IFNγ 5 ng/ml, n=3, listed as aminoguandidie hydrochloride, hydrochloride): block | effect on IFNγ induced increase in Jv (hfRPE monolayers [2]; pre-treatment with iNOS inhibitor, n=3): completely blocked

C[S+]([O-])c1ccc(-c2nc(-c3ccncc3)c(-c3ccc(F)cc3)[nH]2)cc1 (stereo not shown) [SB203580]
decrease of IFNγ-induced JV (hfRPE monolayers [2]; SB203580 5 μM): approximately 62% | effect on IFNγ induced JV (hfRPE monolayers [2]; SB 203580 5 μM apical and basal after IFNγ 5 ng/mL, n=9): decreased | effect on JV following inhibition by basal bath CFTRinh−172 (hfRPE monolayers [2]; SB203580, n=3): no further effect | effect on baseline level of JV (hfRPE monolayers [2]; [4]): no significant effect | effect on the effect of IFNγ (hfRPE monolayers [2]; [4]): completely blocked
